Results published in article PMC12406253, “Exploration of the Neuromodulatory Properties of Fyn and GSK-3β Kinases Exploiting 7‑Azaindole-Based Inhibitors” (Journal of Medicinal Chemistry, 2025).

How the values were obtained:
[1] = system: neurospheres (NPCs from the subventricular zone); assay: Neurosphere growth analysis (NPC proliferation); assay type: cell-based, mice; conditions: 0.1, 1, and 5 μM; 7 days
Protocol: Based on that, we further investigated the neurogenic and differentiation potential of our kinase inhibitors in cell culture of neurospheres, which are floating pools of NPCs coming from the subventricular zone (SVZ) of six-month-old mice. Particularly, we first analyzed the variation, during 7 days, in number and size of neurosphere population with and without treatment.
To investigate the effect of compounds of interest in neurospheres’ growth rate, single spheres were plated in suspension in 96-well plates (5 × 10^3 cells/well) in the presence of compounds (0.1 μM, 1 μM, and 5 μM) in complete DMEM F-12 culture medium. One image/well was acquired every day by using the Sartorius Incucyte Live-Cell Analysis System and evaluated through the Brightfield Spheroid Analysis Software Module. Only aggregates with areas larger than 400 μm^2 were considered for statistical analysis.

[2] = BBB permeability in hCMEC/D3 transwell model; conditions: human
Protocol: To this aim, the immortalized human brain endothelial cell line (hCMEC/D3) was used since it mimics the brain endothelium-restricted permeability and expresses most of the transporters and receptors present in vivo, constituting a valuable in vitro model of the human BBB crossing system.
BBB permeability assay was conducted as described in Albertini et al. The brain microvascular endothelial cells (hCMEC/D3) were seeded at the density of 5 × 10^4 cells per cm^2 in the upper compartment of Transwell filters (polyester, pore size 0.4 μm, 12-well tissue culture transwell; Corning), precoated with rat tail collagen type I (0.1 mg/mL; Roche). They were grown for 7 days up to confluence in Endothelial Cell Growth Medium 2 (Promocell), supplemented with penicillin/streptomycin 100 U/mL, in a humidified, 5% CO2 incubator at 37 °C. Confluent monolayers were washed in prewarmed HBSS buffer, and the selected compounds were added to the apical (AP) side at a concentration of 100 μM. […] Samples (100 μL) were collected from the BL side at different time points (15, 30, 60, and 90 min) and then replaced with the corresponding volume of HBSS buffer. […] The concentration of compounds was determined using a Ultimate 3000 HPLC system (ThermoFisher) with UV–vis detection at the maximum absorption wavelength of each compound except for inulin as determined by a spectrophotometric method using a Tecan Sunrise absorbance microplate reader. […] The permeability coefficient (Papp) was calculated as follows: Papp = (ΔQ/Δt)/(C [donor] × A), where ΔQ/Δt represents the permeation rate (mol/s), C [donor] is the initial compound concentration in the donor compartment at time 0 (mol/cm^3), and A represents the surface area of the filter (1.12 cm^2).

Papp A→B at 90 min, 100 μM [2]: 32 ± 5.38 ×10⁻⁶ cm/s
Compound: Br.Cc1sc(NCc2ccnc(Cl)c2)nc1-c1c[nH]c2ncccc12 [Compound 43, N-((2-Chloropyridin-4-yl)methyl)-5-methyl-4-(1H-pyrrolo[2,3-b]pyridin-3-yl)thiazol-2-amine Hydrobromide]
Neurosphere number (object count per image), neurogenesis [1]: not effective
